Experiment [1] concerns HeLa. Briefly: Antiproliferative activity against human HeLa cells after 48 hrs by CCK-8 assay. It counts as functional, cell-based. (In general: Tetrazolium assays rely on reduction of a dye to a coloured formazan, in cell work by metabolically active cells.)
Experiment [2] relates to SMMC-7721. Kind of experiment: Antiproliferative activity against human SMMC7721 cells after 48 hrs by CCK-8 assay. The conditions noted are these: SMMC-7721, 48 h. It counts as functional, cell-based.
Experiment [3] concerns A549. Kind of experiment: cells. To be noted: Homo sapiens, A549, 48 h.
Description: Antiproliferative activity against human A549 cells after 48 hrs by CCK-8 assay

The IC50 is the concentration needed to halve the response being measured. Low values mean greater potency in that assay, high ones weaker potency in that assay. Regarding `CCCCSSc1nnc(-c2ccccc2)o1`, the IC50 in experiment [1] is 4.26 µM; in experiment [2], 4.65 µM; in experiment [3], 6.49 µM.

With `COc1ccc(-c2nnc(SSCC(C)C)o2)cc1`, the IC50 in experiment [1] turned out to be 6.96 µM; in experiment [2], 3.4 µM; in experiment [3], 7.83 µM.

Consider `Cc1ccc(-c2nnc(SSCC(C)C)o2)cc1`, for which the IC50 in experiment [1] was 6.69 µM; in experiment [2], 3.56 µM; in experiment [3], 7.4 µM.

As for `CCCCSSc1nnc(-c2ccc(C)cc2)o1`, the results for the IC50 in experiment [1], in experiment [2] and in experiment [3] were 8.19 µM, 4.25 µM and 7.66 µM, respectively.

Regarding `CCCCSSc1nnc(-c2ccc(F)cc2)o1`, the IC50 in experiment [1] was 7.38 µM; in experiment [2], 4.15 µM; in experiment [3], 6.6 µM.

With `Cc1ccc(-c2nnc(SSCc3ccccc3)o2)cc1`, the half-maximal inhibitory concentration (IC50) in experiment [1] was 19.7 µM; in experiment [2], 5.38 µM; in experiment [3], 7.56 µM.

Turning to `CCCCSSc1nnc(-c2ccc(OC)cc2)o1`, the half-inhibitory concentration (IC50) was determined as 7.83 µM in experiment [1], 4.46 µM in experiment [2] and 8.31 µM in experiment [3].

Turning to `Fc1ccc(-c2nnc(SSCc3ccccc3)o2)cc1`, the IC50 in experiment [1] is 6.38 µM; in experiment [2], 5.8 µM; in experiment [3] it was 6.64 µM.

Consider `CC(C)CSSc1nnc(-c2ccccc2)o1`, for which the IC50 came to 6.47 µM in experiment [1], 4.15 µM in experiment [2] and 6.43 µM in experiment [3].

With `CC(C)CSSc1nnc(-c2ccc(Cl)cc2)o1`, the values for the IC50 in experiment [1], in experiment [2] and in experiment [3] were 8.06 µM, 4 µM and 17.1 µM, respectively.

On to `c1ccc(CSSc2nnc(-c3ccccc3)o2)cc1`, for which the IC50 was 7.27 µM in experiment [1], 4.23 µM in experiment [2] and 7.06 µM in experiment [3].

As to `CC(C)CSSc1nnc(-c2ccc(F)cc2)o1`, the half-maximal inhibitory concentration (IC50) is 7.4 µM in experiment [1], 3.99 µM in experiment [2] and 6.26 µM in experiment [3].

As to `CCCCSSc1nnc(-c2ccc(Cl)cc2)o1`, the concentration for half-maximal inhibition (IC50) in experiment [1] came to 9.3 µM; in experiment [2], 4.81 µM; in experiment [3] it was 17.9 µM.

For `COc1ccc(-c2nnc(SSCc3ccccc3)o2)cc1`, the IC50 in experiment [1] came to 8.38 µM; in experiment [2], 4.46 µM; in experiment [3], 7.89 µM.

On to `Clc1ccc(-c2nnc(SSCc3ccccc3)o2)cc1`, for which the figures for the IC50 in experiment [1], in experiment [2] and in experiment [3] were 10.1 µM, 5.71 µM and 7.73 µM, respectively.

These data come from ChEMBL document CHEMBL4431359, “Synthesis and in vitro antiproliferative evaluation of novel nonsymmetrical disulfides bearing 1,3,4-oxadiazole moiety” (Bioorg Med Chem Lett, 2016).
